Assay results reported in EPA's ToxValDB 9.5.

Columns and labels:
Rattus norvegicus = conditions: oral, gavage
Mus musculus = conditions: oral
[1] = developmental, duration: 15 days, F, Body Weight: 12% decrease in maternal body weight + Developmental: 12-13% decrease in fetal body weights
[2] = developmental, duration: 15 days, F, Body Weight: 31% decrease in maternal body weight gain + Developmental: Decreases in fetal body weight (9%) and delays in hindlimb …
[3] = reproduction developmental, duration: 70 days, Sprague-Dawley, Body Weight: Medullary/papillary tubular and ductal hyperplasia in P0 and F1
[4] = subchronic, duration: 90 days, M, Sprague-Dawley, Hematological: Decreased hemoglobin (4.9%) and hematocrit (5.2%)
[5] = subchronic, duration: 90 days, Sprague-Dawley, Gastrointestinal: Necrosis of individual squamous cells in forestomach and hyperplasia and hyperkeratosis of limiting ridge + Renal: …
[6] = developmental, duration: 20 days, gavage, F, ICR, Developmental: Decreases in pup body weight / delays in eye opening, vaginal opening, and first estrous / decreases in ovarian follicles…
[7] = chronic, duration: 93 days, F, Endocrine: Thyroid follicular epithelial hypertrophy
[8] = chronic, duration: 93 days, M/F, Hematological: Decreased RBC, hemoglobin, and hematocrit / increased reticulocytes / erythroid hypertrophy in bone marrow and …
[9] = chronic, duration: 93 days, M/F, Respiratory: Degeneration/atrophy of nasal olfactory epithelium at ?100 mg/kg/day and respiratory metaplasia at 500 mg/kg/day
[10] = chronic, duration: 93 days, M, Body Weight: 19% decrease in body weight gain
[11] = developmental, duration: 20 days, F, Body Weight: Decreased maternal weight gain (19%) + Developmental: Decreased fetal weight (10%)
[12] = developmental, duration: 126 days, M/F, Developmental: Decreased pup body weight (17-18%) during lactation period
[13] = reproduction developmental, duration: 126 days, M, Body Weight: Decreased weight gain (12%) / decreased maternal weight gain during GDs 0-7 and increased maternal weight gain during …
[14] = subchronic, duration: 44 days, F, Immunotoxicological: Thymic atrophy in 3/9 females
[15] = subchronic, duration: 44 days, M, Hematological: Decreased hemoglobin levels / increased reticulocytes at 315 mg/kg/day
[16] = subchronic, duration: 90 days, M/F, Sprague-Dawley, Hematological: Slight decreases in RBC, hemoglobin, and hematocrit and increases in reticulocytes
[17] = developmental, duration: 13 days, gavage, F, CD1, Developmental: 12.5% decrease in birth weight and delayed eye opening at ?350 mg/kg/day / increased pup mortality (PND 0-3) and decreased …
[18] = developmental, duration: 13 days, gavage, F, CD1, Developmental: Increase in stillborn pups and 12.5% decrease in birth weight

**Q.** Which results are given for O=S(=O)(O)C(F)(F)C(F)(F)C(F)(F)C(F)(F)F [Perfluorobutanesulfonic acid]?
**A.** LOAEL (Rattus norvegicus; [1]): 2000 mg/kg-day; NOAEL (Rattus norvegicus; [1]): 1000 mg/kg-day; LOAEL (Rattus norvegicus; [2]): 1000 mg/kg-day; NOAEL (Rattus norvegicus; [2]): 300 mg/kg-day; NOAEL (Rattus norvegicus; reproduction developmental, duration: 70 days, Sprague-Dawley, Body Weight: Increased liver weight in males at ?300 mg/kg/day): 1000 mg/kg-day; LOAEL (Rattus norvegicus; [3]): 300 mg/kg-day; NOAEL (Rattus norvegicus; [3]): 100 mg/kg-day; NOAEL (Rattus norvegicus; short-term, duration: 28 days, Sprague-Dawley, Hepatic: Increased absolute and relative liver weight at 900 mg/kg/day + Immunotoxicological: No histological alterations + Neurological: No…): 900 mg/kg-day; LOAEL (Rattus norvegicus; [4]): 200 mg/kg-day; NOAEL (Rattus norvegicus; [4]): 60 mg/kg-day; NOAEL (Rattus norvegicus; subchronic, duration: 90 days, Sprague-Dawley): 600 mg/kg-day; LOAEL (Rattus norvegicus; [5]): 600 mg/kg-day; NOAEL (Rattus norvegicus; [5]): 200 mg/kg-day; NOAEL (Mus musculus; developmental, duration: 20 days, gavage, F, ICR): 500 mg/kg-day; LOAEL (Mus musculus; [6]): 200 mg/kg-day; NOAEL (Mus musculus; [6]): 50 mg/kg-day; NOAEL (Mus musculus; subchronic, duration: 6 weeks, diet, M, Hepatic: Decreased plasma triglyceride levels): 30 mg/kg-day

**Q.** Which results are given for O=C(O)C(F)(F)C(F)(F)C(F)(F)C(F)(F)C(F)(F)F [Perfluorohexanoic acid]?
**A.** LOAEL (Rattus norvegicus; acute, duration: 1 days, F, Sprague-Dawley, Death: 1/4 died at […] / 3/3 died at 5,000 mg/kg/day): 1750 mg/kg-day; LOAEL (Rattus norvegicus; acute, duration: 1 days, F, Sprague-Dawley, Neurological: Abnormal gait, salivation, ataxia, lethargy): 175 mg/kg-day; LOAEL (Rattus norvegicus; chronic, duration: 104 weeks, F, Sprague-Dawley, Death: 36, 43, 33, and 22% survival rate in females at 0, 5, 30, and 200 mg/kg/day, respectivel): 200 mg/kg-day; LOAEL (Rattus norvegicus; chronic, duration: 104 weeks, F, Sprague-Dawley, Hematological: 8.1% reduction in mean RBC count and 5.2% reduction in hemoglobin at 51 weeks / 23.6 and 53.6% increase in reticulocyte …): 200 mg/kg-day; NOAEL (Rattus norvegicus; chronic, duration: 104 weeks, M, Sprague-Dawley, Hematological: 8.1% reduction in mean RBC count and 5.2% reduction in hemoglobin at 51 weeks / 23.6 and 53.6% increase in reticulocyte …): 100 mg/kg-day; LOAEL (Rattus norvegicus; [7]): 500 mg/kg-day; NOAEL (Rattus norvegicus; [7]): 100 mg/kg-day; LOAEL (Rattus norvegicus; [8]): 500 mg/kg-day; NOAEL (Rattus norvegicus; [8]): 100 mg/kg-day; NOAEL (Rattus norvegicus; chronic, duration: 93 days, M/F, Hepatic: Hepatocellular hypertrophy in males at ?100 mg/kg/day and females at 500 mg/kg/day): 500 mg/kg-day; LOAEL (Rattus norvegicus; [9]): 100 mg/kg-day; NOAEL (Rattus norvegicus; [9]): 20 mg/kg-day; LOAEL (Rattus norvegicus; [10]): 500 mg/kg-day; NOAEL (Rattus norvegicus; [10]): 200 mg/kg-day; LOAEL (Rattus norvegicus; chronic, duration: 126 days, F): 500 mg/kg-day; NOAEL (Rattus norvegicus; chronic, duration: 126 days, F): 100 mg/kg-day; NOAEL (Rattus norvegicus; chronic, duration: 126 days, M/F): 500 mg/kg-day; LOAEL (Rattus norvegicus; [11]): 500 mg/kg-day; NOAEL (Rattus norvegicus; [11]): 100 mg/kg-day; LOAEL (Rattus norvegicus; [12]): 500 mg/kg-day; NOAEL (Rattus norvegicus; [12]): 100 mg/kg-day; NOAEL (Rattus norvegicus; reproduction developmental, duration: 44 days, M/F, Gastrointestinal: Stomach erosions/ulceration in dying or sacrificed in extremis rats administered 450 mg/kg/day for 4 days + Hepatic: …): 315 mg/kg-day; LOAEL (Rattus norvegicus; [13]): 100 mg/kg-day; NOAEL (Rattus norvegicus; [13]): 20 mg/kg-day; NOAEL (Rattus norvegicus; subchronic, duration: 44 days, F): 315 mg/kg-day; LOAEL (Rattus norvegicus; [14]): 315 mg/kg-day; NOAEL (Rattus norvegicus; [14]): 150 mg/kg-day; NOAEL (Rattus norvegicus; subchronic, duration: 44 days, M): 315 mg/kg-day; LOAEL (Rattus norvegicus; subchronic, duration: 44 days, M/F, Death: 8/30 deaths (includes rats sacrificed in extremis) during first 4 days of exposure): 450 mg/kg-day; LOAEL (Rattus norvegicus; [15]): 150 mg/kg-day; NOAEL (Rattus norvegicus; [15]): 50 mg/kg-day; LOAEL (Rattus norvegicus; [16]): 200 mg/kg-day; NOAEL (Rattus norvegicus; [16]): 50 mg/kg-day; NOAEL (Rattus norvegicus; subchronic, duration: 90 days, M/F, Sprague-Dawley, Hepatic: Centrilobular hepatocellular hypertrophy at 200 mg/kg/day): 200 mg/kg-day; LOAEL (Mus musculus; [17]): 350 mg/kg-day; NOAEL (Mus musculus; [17]): 100 mg/kg-day; LOAEL (Mus musculus; [18]): 175 mg/kg-day; NOAEL (Mus musculus; [18]): 35 mg/kg-day
